Entries after “also recorded” stand apart in the source; their conditions may differ.
Legend:
D425Med cells = test: XTT growth inhibition, D425Med; assay type: cell-based, human
Protocol: (§1) Cell growth inhibition was estimated in exponentially growing D425Med, D283Med and D384Med cells in 96-well plates. Seeding densities of 1 × 10^3, 3 × 10^3 and 3 × 10^3 cells, respectively, ensured exponential growth for the duration of the experiment. At 24 h (D384Med) or 48 h (D283Med and D425Med) after seeding, cells were exposed to varying concentrations of temozolomide, as described in the Results, in the presence or absence of 0.4 μM AG-014699, a concentration previously shown to enhance temozolomide cytotoxicity in adult tumour cell lines ([Thomas et al, 2007]). After 3 days (D425Med and D384Med) or 5 days (D283Med) of culture (equivalent to approximately three cell divisions), the cell viability was quantified using an XTT cell proliferation kit assay (Roche, Mannheim, Germany), according to the manufacturer's instructions. Cell growth was expressed as a percentage in relation to DMSO or 0.4 μM AG-014699-alone controls. The concentration of temozolomide, alone or in combination with AG-014699, that inhibited growth by 50% (GI50) was calculated from computer-generated curves (GraphPad Software, San Diego, CA, USA). The potentiation factor50 (PF50) is defined as the ratio of […]. All data were from at least three independent experiments.

D384Med cells = test: XTT growth inhibition, D384Med; assay type: cell-based, human
Protocol: as §1

PARP-1 = PARP-1 (Homo sapiens, UniProt P09874); test: PARP activity in D283Med xenograft homogenates after AG-014699 dosing; assay type: in vivo, mouse
Protocol: One or four daily doses of PARP inhibitor AG-014699 (1 mg kg^−1 intraperitoneally (i.p.)) were given to CD-1 nude mice bearing established D283Med xenografts. At 0.5, 2, 6 and 24 h after the initial or fourth daily dose of AG-014699, three animals per time point were bled by cardiac puncture under general anaesthesia, and then killed. Plasma was separated from the blood samples using standard methods and stored at −80°C. The brains and tumours were removed, snap frozen in liquid nitrogen and stored at −80°C before analysis. Blood, tumour and brain tissue were removed from three untreated control animals and processed in the same way.
PARP activity was determined in homogenates of subcutaneous D283Med xenografts and brain tissue (see above). Maximally stimulated PARP activity was measured in replicate samples (n⩾3) of a 1 : 1000 dilution of the homogenate as described for permeabilised D283Med cells (see above). Data were calculated as pmol PAR per mg protein by reference to the PAR standard curve and protein content of the sample and expressed as a percentage of the corresponding tissue from the saline-treated control animals. The mean PARP activity in xenograft and brain samples taken at each time point was expressed as a percentage of the mean PARP activity of control xenografts from untreated mice (n=3).

D283Med cells = test: XTT growth inhibition, D283Med; assay type: cell-based, human
Protocol: as §1

D283Med xenografts = test: Tumour growth inhibition in vivo, D283Med xenografts; design: species or system mouse
From the text: (§2) All of the in vivo experiments were reviewed and approved by the relevant institutional animal welfare committees, and performed according to national law. Female athymic nude mice (CD1 nu/nu; Charles River, Margate, UK) used for anti-tumour studies were maintained and handled in isolators under specific pathogen-free conditions. […], […] and […] (1 × 10^7 exponentially growing cells per mouse, harvested and implanted in growth media) xenografts were established by sub-cutaneous implantation into CD-1 nude mice. […] Treatment was initiated when sufficient number of mice had established tumours to allow randomisation into treatment groups: day 17 for […], day 26 for […] and day 32 for […]. […] For drug combinations, AG-014699 was administered immediately after administering temozolomide. […] Tumour growth delay (TGD) is defined as the time to RTV4 in drug-treated mice compared with the time to RTV4 in control (vehicle alone) mice. Median tumour volume is shown, rather than the mean, as this is generally accepted as the most statistically reliable representation of the average growth rate of tumours in a small group of mice, if a normal distribution of tumour volumes cannot be assumed. Tumour growth delay was calculated as: median time to RTV4 in treated group-median time to RTV4 in control group.

D425Med xenografts = test: Tumour growth inhibition in vivo, D425Med xenografts; design: species or system mouse
From the text: as §2

Sequence of PARP-1 (P09874 whole entry): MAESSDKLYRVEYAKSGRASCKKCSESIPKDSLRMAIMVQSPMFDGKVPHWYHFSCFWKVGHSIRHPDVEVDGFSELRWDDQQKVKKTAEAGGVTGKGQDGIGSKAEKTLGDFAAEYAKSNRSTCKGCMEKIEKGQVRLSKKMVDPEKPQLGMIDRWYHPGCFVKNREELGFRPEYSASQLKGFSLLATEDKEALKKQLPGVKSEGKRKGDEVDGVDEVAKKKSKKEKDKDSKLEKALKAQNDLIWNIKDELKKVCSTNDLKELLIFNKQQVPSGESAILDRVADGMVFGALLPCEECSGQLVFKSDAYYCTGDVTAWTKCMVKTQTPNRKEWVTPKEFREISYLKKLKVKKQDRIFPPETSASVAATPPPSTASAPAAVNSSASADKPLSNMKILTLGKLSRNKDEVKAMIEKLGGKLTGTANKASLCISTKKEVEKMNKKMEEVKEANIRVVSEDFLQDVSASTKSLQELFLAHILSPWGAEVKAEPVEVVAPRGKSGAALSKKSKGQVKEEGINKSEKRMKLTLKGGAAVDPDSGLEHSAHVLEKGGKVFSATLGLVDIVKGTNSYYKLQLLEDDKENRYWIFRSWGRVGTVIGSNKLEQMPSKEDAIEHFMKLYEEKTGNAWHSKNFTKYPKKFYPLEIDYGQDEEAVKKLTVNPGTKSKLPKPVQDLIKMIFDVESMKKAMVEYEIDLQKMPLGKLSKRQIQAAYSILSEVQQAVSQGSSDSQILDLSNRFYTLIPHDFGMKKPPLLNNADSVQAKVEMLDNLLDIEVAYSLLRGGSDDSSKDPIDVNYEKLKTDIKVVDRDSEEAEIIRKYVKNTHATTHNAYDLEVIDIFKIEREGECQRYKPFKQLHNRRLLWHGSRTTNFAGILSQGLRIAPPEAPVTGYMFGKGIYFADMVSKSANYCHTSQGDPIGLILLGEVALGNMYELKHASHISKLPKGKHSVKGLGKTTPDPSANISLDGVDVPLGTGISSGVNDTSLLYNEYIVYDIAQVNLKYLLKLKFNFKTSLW

**Q.** How did the “Sensitisation to temozolomide by AG-014699” value (shortened to “Sensitisation to temozolomide”) (D425Med cells; D425Med (MGMT-deficient), 0.4 μM AG-014699) turn out when CNCc1ccc(-c2[nH]c3cc(F)cc4c3c2CCNC4=O)cc1 [AG-014699] was run?
**A.** not sensitised; also recorded: no sensitisation; also recorded: did not enhance temozolomide sensitivity

**Q.** What about the “Growth inhibition by AG-014699 alone” value (D425Med cells; D425Med, 0.4 μM, data not shown) of the same compound?
**A.** not growth inhibitory

**Q.** And the PF50 (D425Med cells; D425Med, potentiation of temozolomide by 0.4 μM AG-014699)?
**A.** 0.7±0.4

**Q.** What about the “Sensitisation to temozolomide” value (D384Med cells; D384Med (MGMT+ MMR+), 0.4 μM AG-014699) of the same compound?
**A.** > 3 fold

**Q.** And the “Growth inhibition by AG-014699 alone” value (D384Med cells; D384Med, 0.4 μM, data not shown)?
**A.** not growth inhibitory

**Q.** And the PF50 (D384Med cells; D384Med, potentiation of temozolomide by 0.4 μM AG-014699)?
**A.** 3.8±1

**Q.** And the “Reduction of PARP activity in tumour (nadir)” value (PARP-1; D283Med xenograft, 6 h post-injection, similar after first and fourth dose, 1 mg kg−1 i.p.)?
**A.** around 75%

**Q.** And the “Reduction of PARP activity in xenograft tissue” value (PARP-1; abstract, time not stated)?
**A.** ≥ 75%

**Q.** And the “Sensitisation to temozolomide” value (D283Med cells; D283Med (MMR-defective), 0.4 μM AG-014699)?
**A.** 20 fold

**Q.** And the “Growth inhibition by AG-014699 alone” value (D283Med cells; D283Med, 0.4 μM, data not shown)?
**A.** not growth inhibitory

**Q.** And the PF50 (D283Med cells; D283Med, potentiation of temozolomide by 0.4 μM AG-014699)?
**A.** 19±4.7

**Q.** What about the “Median nadir body weight (% starting weight)” value (D283Med xenografts; D283Med-bearing mice, daily x5, TMZ 68 mg kg−1 p.o., AG-014699 1 mg kg−1 i.p.) of the same compound?
**A.** 100 % starting weight

**Q.** And the “Median time to RTV4” value (D283Med xenografts; D283Med, daily x5, TMZ 68 mg kg−1 p.o., AG-014699 1 mg kg−1 i.p.)?
**A.** 8 days

**Q.** And the Complete regressions (D283Med xenografts; D283Med, mice with regression/group)?
**A.** 0/5

**Q.** What about the Tumour growth delay (D283Med xenografts; D283Med, versus control time to RTV4) of the same compound?
**A.** 1 days

**Q.** What about the “Median nadir body weight (% starting weight)” value (D425Med xenografts; D425Med-bearing mice, daily x5, TMZ 68 mg kg−1 p.o., AG-014699 1 mg kg−1 i.p.) of the same compound?
**A.** 98 % starting weight

**Q.** And the “Median time to RTV4” value (D425Med xenografts; D425Med, daily x5, TMZ 68 mg kg−1 p.o., AG-014699 1 mg kg−1 i.p.)?
**A.** 15.5 days

**Q.** And the Complete regressions (D425Med xenografts; D425Med, mice with regression/group, sustained for 100 days)?
**A.** 0/5

From publication PMC2990587, “Central nervous system penetration and enhancement of temozolomide activity in childhood medulloblastoma models by poly(ADP-ribose) polymerase inhibitor AG-014699” (British Journal of Cancer, 2010)
